Test results published in patent US9950983B2, “Tricyclic compounds and process for preparation thereof” (Council of Scientific and Industrial Research, priority 2014, dated 2018).

Columns and labels:
[1] = system: Ae. aegypti females mosquitoes; assay: Mosquito repellence bioassay (protection period, time until the first bite); assay type: in vivo; details: time until first confirmed bite; for Protection period in hrs @dose 0.25 mg/cm^2: dose 0.25 mg/cm^2 on muslin cloth screen over human volunteer's hand; for Protection period in hrs @dose 0.50 mg/cm^2: dose 0.50 mg/cm^2 on muslin cloth screen over human volunteer's hand
Description: Protocol Adopted for the Mosquito Repellence Bioassay
Mosquito repellence activity was assessed on the basis of protection period (hr) offered by various analogues of Nootkatone against Mosquito bites. The protection period was measured on the basis of the concept “time until the first bite” pioneered by Granette (Comparison of mosquito repellency test under laboratory and field conditions. Granett, P. Proc Ann Meet NJ Mosq Assoc, 1938, vol. 25, 51,). Repellence tests were carried out against 3-5 days old, blood starved but sucrose fed (0.5M solution), Ae. aegypti females mosquitoes, drawn from well-established laboratory colony maintained at 27±1° C. Temperatureand 70±5% Relative humidity. The light intensity was regulated at 300-500 lux for testing against laboratory, colonized Ae. aegypti, a day biting mosquito. Human volunteer's hand covered with polythene disposable gloves was introduced in the cage containing about 200 hungry mosquitoes. Mosquitoes were allowed to bite on the back of the hand through muslin screen stuck over a small window (2 cm×2 cm) cutout in the polythene bag. Various analogues of Nootkatone were loaded on the muslin cloth screen instead of direct skin application so as to avoid the potential risk involved in the evaluation of natural products of unknown mammalian toxicity. All the test solutions were made in Analar grade Acetone The muslin cloth screen was first treated with the analogue taking two doses @0.25 mg/cm^2 and 0.5 mg/cm^2 and the solvent was evaporated before use. Control muslin screen was treated with solvent alone. After introduction of the hand covered with the polythene glove with the treated muslin screen into the mosquito cage, number of mosquito bites received in subsequent 5 minutes were counted. In the event of no bites in the initial 5 minutes exposure, the test hand was exposed repeatedly after every consecutive ½ hr for 5 minutes test till the time a confirmed bite was received. Number of hours before the receipt of a confirmed bite (Techniques for the evaluation of insect repellents. A critical review (Schreck, C. E, Ann Rev Entomol, 1977, vol 22, 101) represented the protection period offered by the test compound. In control rate of mosquito bite was 10-12 bites/min. Above test were repeated with both male and female human volunteers using different mosquito batches. All the tests were carried out at 27±1° C. temperature between 9.00-17.00 hrs.

[2] = system: Formosan subterranean termite (Coptotermes formosanus); details: Formosan subterranean termites; Zhu et al., J Chem Ecol 2001; cited from earlier work

| SMILES | Protection period in hrs @dose 0.25 mg/cm^2 [1] [h] | Protection period in hrs @dose 0.50 mg/cm^2 [1] [h] | lowest effective concentration tested [2] [micrograms/g substrate] |
| --- | --- | --- | --- |
| C[C@@H]1CC(=O)C=C2C(=O)[C@@H]3[C@@H](C3(C)C)[C@]21C (racemic) [Recemic nardoaristolone B, (1aS,1bR,2R,6aR)-1,1,1b,2-Tetramethyl-1,1a,1b,2,3,6a-hexahydrocyclopropa[a]indene-4,6-dione] | 3.30 ± 0.0708 | 5.63 ± 0.1778 |  |
| C=C(C)[C@@H]1CCC2=CC(=O)C[C@@H](C)[C@]2(C)C1 (racemic) [Recemic nootkatone, nootkatone, reference compound] | 3.12 ± 0.07 | 5.06 ± 0.06 |  |
| C[C@@H]1CC(=O)C=C2C(=O)[C@H]3[C@H](C3(C)C)[C@]21C [1a, (1aR,1bR,2R,6aS)-1,1,1b,2-Tetramethyl-1,1a,1b,2,3,6a-hexahydro-cyclopropa[a]indene-4,6-dione] | 4.13 ± 0.0626 | 5.35 ± 0.0868 |  |
| CCOC(=O)[C@H]1[C@@H]2C(=O)C3=CC(=O)C[C@@H](C)[C@]3(C)[C@H]12 [1b, Ethyl(1R,1aS,1bR,2R,6aR)-1b,2-dimethyl-4,6-dioxo-1,1a,1b,2,3,4,6,6a-octahydrocyclopropa[a]indene-1-carboxylate] | 1.23 ± 0.040 | 1.40 ± 0.0549 |  |
| CC1(C)[C@@H]2CC3=CC(=O)CCC3[C@@H]21 (stereo partly drawn) [1c, (1aR,6aR)-1,1-Dimethyl-1a,1b,2,3,6,6a-hexahydrocyclopropa[a]-inden-4(1H)-one] | 3.60 ± 0.0791 | 5.30 ± 0.088 |  |
| CC1=C2C[C@@H]3[C@H](C2CCC1=O)C3(C)C (stereo partly drawn) [1d, (1aR,6aR)-1,1,5-trimethyl-1a,1b,2,3,6,6a hexahydrocyclopropa[a]inden-4(1H)-one] | 5.64 ± 0.1984 | 6.29 ± 0.0844 |  |
| C[C@H]1CC(=O)C=C2C[C@@H]3[C@H]([C@@H]21)C3(C)C [1e, (1aR,1bS,6aR)-1,1,2-Trimethyl-1a,1b,2,3,6,6a-hexahydrocyclo propa[a]inden-4(1H)-one] | 5.22 ± 0.0720 | 6.46 ± 0.1507 |  |
| CC[C@H]1CC(=O)C=C2C[C@@H]3[C@H]([C@@H]21)C3(C)C [1f, (1aR,1bS,6aR)-2-Ethyl-1,1-dimethyl-1a,1b,2,3,6,6a hexahydrocyclo propa[a]inden-4(1H)-one] | 1.53 ± 0.1223 | 3.48 ± 0.1396 |  |
| CCC[C@H]1CC(=O)C=C2C[C@@H]3[C@H]([C@@H]21)C3(C)C [1g, (1aR,1bS,6aR)-1,1-Dimethyl-2-propyl-1a,1b,2,3,6,6a-hexahydrocyclo propa[a]inden-4(1H)-one] | 1.8 ± 0.1490 | 1.99 ± 0.1137 |  |
| CC1(C)CC(=O)C=C2C[C@@H]3[C@H]([C@@H]21)C3(C)C [1h, (1aR,1bR,6aR)-1,1,2,2-Tetramethyl-1a,1b,2,3,6,6a-hexahydro cyclo propa[a]inden-4(1H)-one] | 2.19 ± 0.0716 | 2.38 ± 0.07567 |  |
| C=C(C)[C@@H]1CCC2=CC(=O)C[C@@H](C)[C@]2(C)C1 [Natural nootkatone, nootkatone, reference compound] | 5.58 ± 0.171 | >7 |  |
| C=C(C)[C@@H]1CCC2=CC(=O)C[C@@H](C)[C@]2(C)C1 [nootkatone] |  |  | 10 |
